Reference: patent US20230255864A1, “NOVEL COMPOSITIONS COMBINING HEMP DERIVATIVES AND AT LEAST ONE PEPTIDE AND USE THEREOF” (FRANCE COSMEPHYL-LAB, priority 2020, published 2023)
Values joined by “and” are separate entries in the source; they are usually repeats but may differ in a detail not shown here. Equal values may be shown once.

System: RAW 267.4 murine macrophages
Test: Cell viability of murine macrophages (WST-1 mitochondrial respiration), in parallel with NO release
Assay type: cell-based
Description: MURINS RAW 267.4 Macrophage cell line (Sigma-Aldrich, No. P6110401, Lot. 091006), low number of passages (less than 50).
Complete medium: DMEM with stabilized L-glutamine (Dulbecco's Minimum Essential Medium, PAN BIOTECH. Lot 974251) supplemented with Penicillin 100 IU/ml and streptomycin 100 μg/m1 (PAN BIOTECH, Lot 225614), and 10% inactivated calf serum (PAN BIOTECH, Lot P460518), pH 7.2, freshly prepared, stored for less than 3 weeks.
Cannabidiol (CBD) is diluted in DMSO (10 mg/mL storage solution), and subjected to an ultrasonic bath for 20 minutes. The Neutrazen™ solution is diluted in PBS (Phosphate buffer saline, Sigma-Aldrich).
RAW 267.4 murine macrophages were inoculated into 48-well tissue culture plates at a concentration of 1.10^5 cells/ml (200 μl/well) and incubated for 24 hours at 37° C. (5% CO2).
At the end of the incubation period, the culture medium was replaced with 200 μl of medium containing the appropriate concentrations of the material to be tested, and the cells were incubated at 37° C. (5% CO2) for one hour.
At the end of the incubation period, pro-inflammatory E. coli LPS was added to the cell cultures (1 μg/ml. Then the cells were incubated at 37° C. (5% CO2) for 24 hours.
In parallel with the evaluation of the release of NO, the cell viability was measured to validate the tests. Vital Stain Reagent WST-1 was used to measure cellular mitochondrial respiration. For this, the culture medium was decanted and 100 μl of WST-1 reagent ( 1/10 dilution) were added to each well. After an incubation period of 30 min at 37° C. (5% CO2), the Optical Density (OD) of each well was read at a wavelength of 450 nm by an Infinite M200 Pro fluorescence-luminescence reader (TECAN). The results obtained for the wells treated with the test material were compared with those of the untreated control wells (DMSO, 100% viability) and converted into percentage values.
Inhibition of NO release and inhibition of cell viability were expressed as a percentage relative to the negative controls: […]
The concentrations of test material causing a 50% decrease in NO release (IC50 (NO release)) and a 50% decrease in cell viability (IC50 (cell viability)) respectively were calculated using TableCurve software Version 2.0.
Analysis of the anti-inflammatory activity and of the cell viability of the cannabidiol/palmitoyl tripeptide-8 (Neutrazen™) association in a mixture by isobologram analysis. For each concentration of Neutrazen™ (0.01, 0.025, 0.05 and 0.1%), different concentrations of CBD are tested (0.01, 0.025, 0.05, 0.1, 0.25, 0.5, 1 and 2.5%) to determine both the production of NO and cell viability.
The results obtained with the different mixtures of CBD and Neutrazen™ made it possible to calculate the pairs of concentrations corresponding to a 50% reduction in the production of NO and a 50% reduction in cell viability.

C=C(C)[C@@H]1CCC(C)=C[C@H]1c1c(O)cc(CCCCC)cc1O [CBD]
Cell viability (% as compared to the negative control) (CBD 0.01 weight % in mixture with NeutraZen 0.01%): 99.54% and 101.55%
Cell viability (% as compared to the negative control) (CBD 0.01 weight % in mixture with NeutraZen 0.025%): 101.86%
Cell viability (% as compared to the negative control) (CBD 0.01 weight % in mixture with NeutraZen 0.05%): 101.83% and 101.55%
Cell viability (% as compared to the negative control) (CBD 0.01 weight % in mixture with NeutraZen 0.1%): 100.00%
Cell viability (% as compared to the negative control) (CBD 0.025 weight % in mixture with NeutraZen 0.01%): 99.24% and 100.77%
Cell viability (% as compared to the negative control) (CBD 0.025 weight % in mixture with NeutraZen 0.025%): 100.76% and 101.08%
Cell viability (% as compared to the negative control) (CBD 0.025 weight % in mixture with NeutraZen 0.05%): 101.22% and 100.77%
Cell viability (% as compared to the negative control) (CBD 0.025 weight % in mixture with NeutraZen 0.1%): 100.15%
Cell viability (% as compared to the negative control) (CBD 0.05 weight % in mixture with NeutraZen 0.01%): 98.93% and 100.62%
Cell viability (% as compared to the negative control) (CBD 0.05 weight % in mixture with NeutraZen 0.025%): 96.18% and 100.31%
Cell viability (% as compared to the negative control) (CBD 0.05 weight % in mixture with NeutraZen 0.05%): 100.61% and 100.62%
Cell viability (% as compared to the negative control) (CBD 0.05 weight % in mixture with NeutraZen 0.1%): 99.54% and 100.00%
Cell viability (% as compared to the negative control) (CBD 0.1 weight % in mixture with NeutraZen 0.01%): 100.00% and 102.63%
Cell viability (% as compared to the negative control) (CBD 0.1 weight % in mixture with NeutraZen 0.025%): 96.34% and 99.23%
Cell viability (% as compared to the negative control) (CBD 0.1 weight % in mixture with NeutraZen 0.05%): 100.00%
Cell viability (% as compared to the negative control) (CBD 0.1 weight % in mixture with NeutraZen 0.1%): 99.54%
Cell viability (% as compared to the negative control) (CBD 0.25 weight % in mixture with NeutraZen 0.01%): 89.77% and 93.81%
Cell viability (% as compared to the negative control) (CBD 0.25 weight % in mixture with NeutraZen 0.025%): 88.09% and 89.16%
Cell viability (% as compared to the negative control) (CBD 0.25 weight % in mixture with NeutraZen 0.05%): 100.31%
Cell viability (% as compared to the negative control) (CBD 0.25 weight % in mixture with NeutraZen 0.1%): 97.40% and 98.61%
Cell viability (% as compared to the negative control) (CBD 0.5 weight % in mixture with NeutraZen 0.01%): 7.18% and 6.81%
Cell viability (% as compared to the negative control) (CBD 0.5 weight % in mixture with NeutraZen 0.025%): 7.33% and 7.43%
Cell viability (% as compared to the negative control) (CBD 0.5 weight % in mixture with NeutraZen 0.05%): 9.16% and 7.59%
Cell viability (% as compared to the negative control) (CBD 0.5 weight % in mixture with NeutraZen 0.1%): 9.47% and 8.20%
Cell viability (% as compared to the negative control) (CBD 1 weight % in mixture with NeutraZen 0.01%): 5.95% and 5.57%
Cell viability (% as compared to the negative control) (CBD 1 weight % in mixture with NeutraZen 0.025%): 5.34% and 4.95%
Cell viability (% as compared to the negative control) (CBD 1 weight % in mixture with NeutraZen 0.05%): 7.43%
Cell viability (% as compared to the negative control) (CBD 1 weight % in mixture with NeutraZen 0.1%): 8.40% and 7.59%
Cell viability (% as compared to the negative control) (CBD 2.5 weight % in mixture with NeutraZen 0.01%): 5.65% and 4.33%
Cell viability (% as compared to the negative control) (CBD 2.5 weight % in mixture with NeutraZen 0.025%): 4.49%
Cell viability (% as compared to the negative control) (CBD 2.5 weight % in mixture with NeutraZen 0.05%): 7.79% and 6.97%
Cell viability (% as compared to the negative control) (CBD 2.5 weight % in mixture with NeutraZen 0.1%): 7.63% and 6.35%
Cell viability (% as compared to the negative control) (sample alone at 0.01 weight %): 99.69% and 100.15%
Cell viability (% as compared to the negative control) (sample alone at 0.025 weight %): 99.85% and 99.23%
Cell viability (% as compared to the negative control) (sample alone at 0.05 weight %): 94.50% and 93.81%
Cell viability (% as compared to the negative control) (sample alone at 0.1 weight %): 51.15% and 55.11%
Cell viability (% as compared to the negative control) (sample alone at 0.25 weight %): 5.65% and 5.73%
Cell viability (% as compared to the negative control) (sample alone at 0.5 weight %): 3.97% and 3.25%
Cell viability (% as compared to the negative control) (sample alone at 1 weight %): 1.98% and 1.86%
Cell viability (% as compared to the negative control) (sample alone at 2.5 weight %): 1.98% and 2.14% and 0.46%
